Reference: US12281363B2, “Methods for detecting antiviral-drug resistant virus” (Secretary of State for Health and Social Care, priority 2018, dated 2025)
Where two headings read alike, the source gives them in different places.

System: HSV-1
Assay: Plaque reduction assay, HSV-1 clinical isolates on Vero cells
Type: cell-based
Conditions: Human alphaherpesvirus 1, Vero
Text: Viral isolates were used to infect a sub-confluent monolayer of Vero cells at a concentration of 75 or 50 plaque forming units (PFU) per well for HSV-1 and HSV-2, respectively. […] CMC medium typically used to create a semisolid interface and prevents indiscrimate viral spreading. Other materials (e.g. agar) may also be used to create this interface.
Cells were fixed with 10% formalin and stained with crystal violet before enumeration of the plaques (microscopic observation or use of fluorescent antibodies for detection is also suitable). The data obtained from these experiments were then expressed as percent inhibition of viral infectivity relative to the no drug control.
Definitions of phenotypic drug susceptibility classification as sensitive or resistant were as follows: ACV, <3 μM or >40 μM; PCV, <10 μM or >40 μM; CDV, <24 μM or >30 μM; FOS, <250 μM or >400 μM; and ACV, <6.5 μM or >40 μM; PCV, <38 μM or >40 μM; FOS, <250 μM or >400 μM for HSV-1 and HSV-2, respectively. Any IC50 values falling in between these sensitive and resistant cut-offs were reported as intermediate resistance.
The phenotype (i.e. reactivity to a drug) of the virus was characterised by the plaque reduction assay as described above.

## Nc1nc2c(ncn2COCCO)c(=O)[nH]1 [Aciclovir, acyclovir]
72 h, isolate HPG053, HSV-1 pol L802R + A834S (2405T>G, 2500G>T), also TK R176W, read-out: Drug susceptibility (IC50 value)
  IC50: > 40 µM
Isolate HPG002, HSV-1 pol E992K (2974G>A), also TK insert (G) nt 430-436, pol A1169T, read-out: Drug susceptibility (IC50 value)
  IC50: 21.6 µM
Isolate HPG003, HSV-1 TK Y172S (515A>C), read-out: Drug susceptibility (IC50 value)
  IC50: 28 µM
Isolate HPG005, HSV-1 TK A37V (110C>T), read-out: Drug susceptibility (IC50 value)
  IC50: 1.46 µM
Isolate HPG008, HSV-1 TK V204G (611T>G), read-out: Drug susceptibility (IC50 value)
  IC50: 22.5 µM
Isolate HPG009, HSV-1 pol E992K (2974G>A), also pol A1169T, read-out: Drug susceptibility (IC50 value)
  IC50: 1.3 µM
Isolate HPG010, HSV-1 TK Q125* (373C>T), read-out: Drug susceptibility (IC50 value)
  IC50: 9.21 µM
Isolate HPG011, HSV-1 TK Q125* (373C>T), read-out: Drug susceptibility (IC50 value)
  IC50: 13.8 µM
Isolate HPG013, HSV-1 TK M121I (363G>A), read-out: Drug susceptibility (IC50 value)
  IC50: 18.8 µM
Isolate HPG013, HSV-1 pol D83A (248A>C), also TK M121I, pol A1169T, read-out: Drug susceptibility (IC50 value)
  IC50: 18.8 µM
Isolate HPG014, HSV-1 pol A1115T (3343G>A), read-out: Drug susceptibility (IC50 value)
  IC50: 1.41 µM
Isolate HPG014, HSV-1 pol R993C (2977C>T), read-out: Drug susceptibility (IC50 value)
  IC50: 1.41 µM
Isolate HPG014, HSV-1 pol T54A (160A>G), read-out: Drug susceptibility (IC50 value)
  IC50: 1.41 µM
Isolate HPG015, HSV-1 pol 966stop or F965_I966insF (2892_2893insT to 2895_2896insT), read-out: Drug susceptibility (IC50 value)
  IC50: 2.4 µM
Isolate HPG018, HSV-1 TK frameshift (881delC to 885delC), read-out: Drug susceptibility (IC50 value)
  IC50: 24.7 µM
Isolate HPG018, HSV-1 pol P1199T (3595C>A), also TK deletion (C) nt 881-885, pol A1169T, read-out: Drug susceptibility (IC50 value)
  IC50: 24.7 µM
Isolate HPG019, HSV-1 pol K750T (2249A>C), also TK deletion (G) nt 430-436, pol A1169T, read-out: Drug susceptibility (IC50 value)
  IC50: > 40 µM
Isolate HPG020, HSV-1 pol S911N (2732G>A), also pol A1169T, read-out: Drug susceptibility (IC50 value)
  IC50: 0.56 µM
Isolate HPG021, HSV-1 pol R681Q (2042G>A), also TK deletion (G) nt 430-436, read-out: Drug susceptibility (IC50 value)
  IC50: > 40 µM
Isolate HPG021, HSV-1 pol T839A (2515A>G), also TK deletion (G) nt 430-436, read-out: Drug susceptibility (IC50 value)
  IC50: > 40 µM
Isolate HPG025, HSV-1 pol E850Q (2548G>C), also TK R216C, read-out: Drug susceptibility (IC50 value)
  IC50: 22.2 µM
Isolate HPG026, HSV-1 pol E850Q (2548G>C), also TK R216C, pol A1169T, read-out: Drug susceptibility (IC50 value)
  IC50: 18.1 µM
Isolate HPG027, HSV-1 TK V204G (611T>G), also pol S914L, A1169AT, read-out: Drug susceptibility (IC50 value)
  IC50: > 40 µM
Isolate HPG027, HSV-1 pol S914L (2741C>T), also TK V204G, pol A1169T, read-out: Drug susceptibility (IC50 value)
  IC50: > 40 µM
Isolate HPG029, HSV-1 TK Y172S (515A>C), read-out: Drug susceptibility (IC50 value)
  IC50: > 40 µM
Isolate HPG031, HSV-1 pol E1120A (3359A>C), also a TK resistance mutation (footnote e), read-out: Drug susceptibility (IC50 value)
  IC50: 27.7 µM
Isolate HPG031, HSV-1 pol G139R (415G>C or 415G>A), also a TK resistance mutation (footnote e), read-out: Drug susceptibility (IC50 value)
  IC50: 27.7 µM
Isolate HPG032, HSV-1 TK 183* (437_438insA), read-out: Drug susceptibility (IC50 value)
  IC50: 27.4 µM
Isolate HPG033, HSV-1 TK I358L (1072A>C), also TK T287M, read-out: Drug susceptibility (IC50 value)
  IC50: 38.9 µM
Isolate HPG033, HSV-1 pol N1046T (3137A>C), also TK T287M, pol A1169T, read-out: Drug susceptibility (IC50 value)
  IC50: 38.9 µM
Isolate HPG035, HSV-1 pol S239L (716C>T), also pol S724N, read-out: Drug susceptibility (IC50 value)
  IC50: 5.43 µM
Isolate HPG037, HSV-1 TK R256W (766C>T), read-out: Drug susceptibility (IC50 value)
  IC50: 24.8 µM
Isolate HPG037, HSV-1 TK Y239H (715T>C), read-out: Drug susceptibility (IC50 value)
  IC50: 24.8 µM
Isolate HPG039, HSV-1 TK 85* or H58fs (169delC, 170delC, 171delC, or 172delC), read-out: Drug susceptibility (IC50 value)
  IC50: 25.6 µM
Isolate HPG040, HSV-1 pol S911N (2732G>A), also TK deletion (C) nt 896-900, pol A1169T, read-out: Drug susceptibility (IC50 value)
  IC50: > 40 µM
Isolate HPG041, HSV-1 pol S911N (2732G>A), also pol A1169T, read-out: Drug susceptibility (IC50 value)
  IC50: 0.5 µM
Isolate HPG042, HSV-1 pol A972V (2915C>T), also TK deletion (C) nt 881-885, pol A1169T, read-out: Drug susceptibility (IC50 value)
  IC50: > 40 µM
Isolate HPG042, HSV-1 pol G22R (64G>A), also TK deletion (C) nt 881-885, pol A1169T, read-out: Drug susceptibility (IC50 value)
  IC50: > 40 µM
Isolate HPG043, HSV-1 TK 183* (437_438insA), read-out: Drug susceptibility (IC50 value)
  IC50: 28.5 µM
Isolate HPG045, HSV-1 TK L49R (146T>G), read-out: Drug susceptibility (IC50 value)
  IC50: 31.5 µM
Isolate HPG045, HSV-1 pol L419I (1255C>A), also TK L49R, pol A1169T, read-out: Drug susceptibility (IC50 value)
  IC50: 31.5 µM
Isolate HPG046, HSV-1 TK I166N (497T>A), read-out: Drug susceptibility (IC50 value)
  IC50: 11.4 µM
Isolate HPG050, HSV-1 TK Q34* (100C>T), read-out: Drug susceptibility (IC50 value)
  IC50: > 40 µM
Isolate HPG051, HSV-1 pol D83A (248A>C), also TK R176stop, read-out: Drug susceptibility (IC50 value)
  IC50: 29.2 µM
Isolate HPG052, HSV-1 TK Q34* (100C>T), read-out: Drug susceptibility (IC50 value)
  IC50: 8.45 µM
Isolate HPG053, HSV-1 pol S911N (2732G>A), also TK R176W, pol A1169T, read-out: Drug susceptibility (IC50 value)
  IC50: > 40 µM
Isolate HPG054, HSV-1 pol E992K (2974G>A), also TK insert (G) nt 430-436, pol A1169T, read-out: Drug susceptibility (IC50 value)
  IC50: 8.25 µM
read-out: Drug susceptibility (IC50 value), isolate HPG005, HSV-1 TK A192T (574G>A)
  IC50: 1.46 µM
read-out: Drug susceptibility (IC50 value), isolate HPG006, HSV-1 pol G121S (361G>A), also a TK resistance mutation (footnote a)
  IC50: > 40 µM
read-out: Drug susceptibility (IC50 value), isolate HPG012, HSV-1 pol G985E (2954G>A), also TK A93V
  IC50: > 40 µM
read-out: Drug susceptibility (IC50 value), isolate HPG016, HSV-1 pol A1169T (3505G>A)
  IC50: 3.55 µM
read-out: Drug susceptibility (IC50 value), isolate HPG037, HSV-1 TK L69M (205>A), also TK Y239H
  IC50: 24.8 µM
read-out: Drug susceptibility (IC50 value), isolate HPG042, HSV-1 TK frameshift (881delC to 885delC)
  IC50: > 40 µM
read-out: Drug susceptibility (IC50 value), isolate HPG047, HSV-1 pol E680 (2039A>C), also TK deletion (C) nt 548-553, pol A1169T
  IC50: 22.4 µM
